Results taken from patent publication US12427106B2, “Elastic sheet with function of re-activating endometrial basal layer in uterine cavity and forming method thereof” (YIPURUN (SHANGHAI) BIOTECHNOLOGY CO., LTD., priority 2018, dated 2025).

Key:
[1] = cited from earlier work
[2] = blood concentration in vivo of New Zealand rabbits after implantation or oral dose
Protocol: New Zealand rabbits within 10 weeks after the implantation. […] The blood concentrations of subjects were measured per 2 weeks, and the trend in vivo matched the release in vitro despite the few of data points. […] New Zealand rabbits within 10 weeks after the implantation. […] The blood concentrations of subjects were measured per 2 weeks, and the trend in vivo matched the release in vitro despite the few of data points. […] It can be seen from the FIG. that the blood concentration in vivo is consistent with the release in vitro trend, thus the treatment in vivo can be adjusted by the release in vitro. The following table gives a comparison of a relationship between the oral dose and the blood concentration in vivo and another relationship between the released drug of the elastic sheet and the blood concentration in vivo: Following table 10 gives a comparison of a relationship between the oral dose and the blood concentration in vivo and another relationship between the released drug of the elastic sheet and the blood concentration in vivo: […]

[3] = blood concentration in vivo of subjects after implantation or oral dose
Protocol: The blood concentrations of subjects were measured per 2 weeks, and the trend in vivo matched the release in vitro despite the few of data points.
It can be seen from the FIG. that the blood concentration in vivo is consistent with the release in vitro trend, thus the treatment in vivo can be adjusted by the release in vitro.
The following table gives a comparison of a relationship between the oral dose and the blood concentration in vivo and another relationship between the released drug of the elastic sheet and the blood concentration in vivo: […]

Blood concentration ([2]; Oral dose 1000 μg/d)	Blood concentration ([2]; Oral dose 2000 μg/d)	Blood concentration ([2]; Oral dose 3000 μg/d)	Blood concentration ([3]; Oral dose 1000 μg/d)	Blood concentration ([3]; Oral dose 2000 μg/d)	Blood concentration ([3]; Oral dose 3000 μg/d)	Blood concentration ([3]; Oral dose 4000 μg/d)	Compound	increase of the serum concentration of estradiol (E2) ([1]; oral administration of 4 mg (2 mg bid))	absorption effect of vaginal administration relative to oral administration ([1]; vaginal versus oral)
							CCCCC(=O)O[C@H]1CC[C@H]2[C@@H]3CCc4cc(O)ccc4[C@H]3CC[C@]12C [estradiol valerate]	211.89 ± 57.40 pg/mL	4 to 8 times
0.1112 nM	0.2558 nM	0.4985 nM	0.1112 nM	0.2558 nM	0.4985 nM	0.9893 nM	C[C@]12CC[C@@H]3c4ccc(O)cc4CC[C@H]3[C@@H]1CC[C@@H]2O [estradiol]		
